Test results from EP0097202A1, “Hydrazinopyridazine compound, process for production thereof, and use thereof as medicament” (TEIKOKU HORMONE MFG. CO., LTD., priority 1982, dated 1984).
Read-outs that look alike come from different tables or passages of the source.

Tests used:
Format in all cases: in vivo, male Wistar rats
[1] = vasodilating activity (hypotensive activity): maximum fall in blood pressure in anesthetized rats; details: maximum fall in blood pressure during 40 minutes after 1 mg/kg i.v., three animals
Protocol: (§1) Experiments were done using male Wistar rats weighing between 300 and 400 g, anesthetized with sodium pentobarbital (60 mg/kg i.p.). The blood pressure was directly measured by connecting a cannula inserted in the femoral artery to a pressure transducer and the heart rate was calculated from the pulse waves of the blood pressure tracings. Each value shown here was obtained from three animals. The test compounds were individually dissolved in physiological saline solution or a 0.01 N aqueous solution of hydrochloric acid.
Each test compound dissolved in physiological saline solution or 0.01 N hydrochloric acid was intravenously injected into rats in a fixed dose of 1 mg/kg and the blood pressure was continuously monitored for 40 minutes. The maximum fall in blood pressure during this period was determined and taken as the hypotensive activity of each compound.

β1-adrenoceptors = target: T1, β1-adrenoceptors (Rattus norvegicus, UniProt P18090); assay: β-adrenoceptor blocking activity: inhibition of the isoproterenol-induced increase in heart rate in anesthetized rats; details: iv, 0.05 h
T1 construct: Experiments were done using male Wistar rats weighing between 300 and 400 g, anesthetized with sodium pentobarbital; from tissue; host or cells: whole animal (anesthetized male Wistar rats), cardiac response in vivo
Protocol: as §1
The increased heart rate before injection of the test compound was represented by H1. Three minutes after i.v. injection of the test compound, isoproterenol (0.1 µg/kg i.v.) was again administered and then the change in heart rate was measured. The maximum increase in heart rate after injection of the test compound was designated as H2. From these values, the percent inhibition of the change in heart rate was calculated in accordance with the following equation.
Percent inhibition of the heart rate [formula]
(§2) By repeating the procedure mentioned above at various doses of the test compounds, dose-response curves were prepared.

β2-adrenoceptor = assay: β-adrenoceptor blocking activity: inhibition of the isoproterenol-induced fall in blood pressure in anesthetized rats; details: 50 % inhibition of fall in blood pressure by isoproterenol 0.1 µg/kg i.v.
Protocol: as §1, §2

[2] = read-out: β-adrenoceptor blocking action ID50

T1 sequence (P18090 whole entry): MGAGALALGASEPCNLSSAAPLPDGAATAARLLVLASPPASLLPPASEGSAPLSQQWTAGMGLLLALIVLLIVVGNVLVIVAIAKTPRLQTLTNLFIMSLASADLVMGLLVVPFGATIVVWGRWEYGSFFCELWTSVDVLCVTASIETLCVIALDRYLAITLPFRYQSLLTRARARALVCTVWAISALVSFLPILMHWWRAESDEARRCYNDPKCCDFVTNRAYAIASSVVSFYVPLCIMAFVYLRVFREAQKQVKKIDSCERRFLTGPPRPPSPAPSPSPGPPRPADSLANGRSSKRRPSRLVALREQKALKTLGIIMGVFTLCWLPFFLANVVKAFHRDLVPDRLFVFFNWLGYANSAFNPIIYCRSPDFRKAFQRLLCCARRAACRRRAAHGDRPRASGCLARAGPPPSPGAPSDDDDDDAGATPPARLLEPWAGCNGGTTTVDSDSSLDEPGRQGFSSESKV

Compound	Hypotensive action [1]	ED50 (β1-adrenoceptors; [2]) [mg/kg]	β-adrenoceptor blocking action ID50 β2 (β2-adrenoceptor)	ED50 (β1-adrenoceptors; read-out: β-adrenoceptor blocking action ID50 β1) [mg/kg]
CC(C)(COc1ccc(NN)nn1)NCC(O)COc1ccccc1 (stereo not shown) [A, 1-penoxy-3-[1,1-dimethyl-2-(3-hydrozino-6-pyridazinyloxy)ethylamino]-2-propanol]	++ (a fall in blood pressure of 25 to 34 mmHg)	0.04		
CC(C)NCC(O)COc1ccc(CC(N)=O)cc1 (stereo not shown) [Atenolol, reference compound]			1.5 mg/kg i.v.	0.05
CC(C)(COc1ccc(NN)nn1)NCC(O)COc1ccccc1Cl (stereo not shown) [B, 1-(2-chlorophenoxy)-3-[1,1-dimethyl-2-(3-hydrozino-6-pyridazinyloxy)ethylamino]-2-propanol]	+++ (35 mmHg or more)	0.008	0.23 mg/kg i.v.	
Cc1ccccc1OCC(O)CNC(C)(C)COc1ccc(NN)nn1 (stereo not shown) [C, 1-(2-methylphenoxy)-3-[1,1-dimethyl-2-(3-hydrazino-6-pyridazinyloxy)ethylamino]-2-propanol]	+++ (35 mmHg or more)	0.015	0.45 mg/kg i.v.	
CCc1ccccc1OCC(O)CNC(C)(C)COc1ccc(NN)nn1 (stereo not shown) [D, 1-(2-ethylphenoxy)-3-[1,1-dimethyl-2-(3-hydrazino-6-pyridazinyloxy)ethylamino]-2-propanol]	+++ (35 mmHg or more)	0.2		
CCCc1ccccc1OCC(O)CNC(C)(C)COc1ccc(NN)nn1 (stereo not shown) [E, 1-(2-propylphenoxy)-3-[1,1-dimethyl-2-(3-hydrazino-6-pyridazinyloxy)ethylamino]-2-propanol]	++ (a fall in blood pressure of 25 to 34 mmHg)	0.2		
Cc1cccc(OCC(O)CNC(C)(C)COc2ccc(NN)nn2)c1Cl (stereo not shown) [F, 1-(2-chloro-3-methylphenoxy)-3-[1,1-dimethyl-2-(3-hydrazino-6-pyridazinyloxy)ethylamino]-2-propanol]	++ (a fall in blood pressure of 25 to 34 mmHg)	0.08		
CC(C)=NNc1ccc(OCC(C)(C)NCC(O)COc2cc(C)ccc2Cl)nn1 (stereo not shown) [G, 1-(2-chloro-5-methylphenoxy)-3-[1,1-dimethyl-2-(3-isopropylidenehydrazino-6-pyridazinyloxy)ethylamino]-2-propanol]	++ (a fall in blood pressure of 25 to 34 mmHg)	0.15		
Cc1ccc(Cl)c(OCC(O)CNC(C)(C)COc2ccc(NN)nn2)c1 (stereo not shown) [H, 1-(2-chloro-5-methylphenoxy)-3-[1,1-dimethyl-2-(3-hydrazino-6-pyridazinyloxy)ethylamino]-2-propanol]	++ (a fall in blood pressure of 25 to 34 mmHg)	0.15		
CC(C)(COc1ccc(NN)nn1)NCC(O)COc1ccccc1C#N (stereo not shown) [I, 1-(2-cyanophenoxy)-3-[1,1-dimethyl-2-(3-hydrazino-6-pyridazinyloxy)ethylamino]-2-propanol]	+++ (35 mmHg or more)	0.02	0.1 mg/kg i.v.	
CC(C)(COc1ccc(NN)nn1)NCC(O)COc1cc(Cl)ccc1C#N (stereo not shown) [J, 1-(2-cyano-5-chlorophenoxy)-3-[1,1-dimethyl-2-(3-hydrazino-6-pyridazinyloxy)ethylamino]-2-propanol]	++ (a fall in blood pressure of 25 to 34 mmHg)	0.12		
Cc1ccc(C#N)c(OCC(O)CNC(C)(C)COc2ccc(NN)nn2)c1 (stereo not shown) [K, 1-(2-cyano-5-methylphenoxy)-3-[1,1-dimethyl-2-(3-hydrazino-6-pyridazinyloxy)ethylamino]-2-propanol]	+++ (35 mmHg or more)	0.05	0.1 mg/kg i.v.	
COCc1ccccc1OCC(O)CNC(C)(C)COc1ccc(NN)nn1 (stereo not shown) [L, 1-(2-methoxymethylphenoxy)-3-[1,1-dimethyl-2-(3-hydrazino-6-pyridazinyloxy)ethylamino]-2-propanol]	+++ (35 mmHg or more)	0.03		
CCOCc1ccccc1OCC(O)CNC(C)(C)COc1ccc(NN)nn1 (stereo not shown) [M, 1-(2-ethoxymethylphenoxy)-3-[1;1-dimethyl-2-(3-hydrazino-6-pyridazinyloxy)ethylamino]-2-propanol]	++ (a fall in blood pressure of 25 to 34 mmHg)	0.06		
COCCc1ccccc1OCC(O)CNC(C)(C)COc1ccc(NN)nn1 (stereo not shown) [N, 1-[2-(2-methoxyethyl)phenoxy]-3-[1,1-dimethyl-2-(3-hydrazino-6-pyridazinyloxy)ethylamino]-2-propanol]	+++ (35 mmHg or more)	0.08		
CCOCCc1ccccc1OCC(O)CNC(C)(C)COc1ccc(NN)nn1 (stereo not shown) [O]	++ (a fall in blood pressure of 25 to 34 mmHg)	0.16		
C=CCOc1ccccc1OCC(O)CNC(C)(C)COc1ccc(NN)nn1 (stereo not shown) [P, 1-(2-allyloxyphenoxy)-3-[1,1-dimethyl-2-(3-hydrazino-6-pyridazinyloxy)ethylamino]-2-propanol]	++ (a fall in blood pressure of 25 to 34 mmHg)	0.1		
Cc1ccccc1OCC(O)CNC(C)(C)CSc1ccc(NN)nn1 (stereo not shown) [Q, 1-(2-methylphenoxy)-3-[1,1-dimethyl-2-(3-hydrazino-6-pyridazinylthio)ethylamino]-2-propanol]	++ (a fall in blood pressure of 25 to 34 mmHg)	0.04		
C#Cc1ccccc1OCC(O)CNC(C)(C)COc1ccc(NN)nn1 (stereo not shown) [R, 1-(2-ethinylphenoxy)-3-[1,1-dimethyl-2-(3-hydrazino-6-pyridazinyloxy)ethylamino]-2-propanol]	+++ (35 mmHg or more)	0.02	No antagonistic action at 0.1	
